# Results as given in patent publication US20110034424A1, “METHOD FOR THE LONG TERM NSAID USE” (SUCAMPO AG, priority 2009, published 2011).
# What was measured:
# [1] = test system: patients with osteoarthritis and/or rheumatoid arthritis; assay: 12-week double-blinded, randomized, dose-ranging, placebo-controlled phase 2 trial of cobiprostone with naproxen; format: in vivo, human; settings: for Drug-related gastrointestinal adverse event rate / Median number of days in the treatment period / Related adverse event: diarrhea / Related adverse event: gastritis / Related adverse event: nausea / Related overall adverse event rate / Withdrawal rate from the trial due to an adverse event / Retention rate at Week 8 / Retention rate at Week 12: naproxen 500 mg twice a day
# Method: A total of 124 patients with osteoarthritis and/or rheumatoid arthritis were enrolled in 12-week, double-blinded, randomized, dose-ranging and placebo-controlled phase 2 trial. All patients in the trial received 500 mg of naproxen twice a day. There were four treatment cohorts: one cohort received placebo while the other three cohorts received 18 mcg of cobiprostone either once, twice or three times a day (daily totals of 18, 36 or 54 mcg, respectively).
# Retention rate and withdrawal rate were evaluated by the following definitions.
# Retention rate: The number of intent-to-treat subjects that remained in the trial at a specified week.
# Withdrawal Rate: The number of randomized subjects that discontinued the trial. The reasons for discontinuation were:
# b. Discontinued due to ulcer
# The withdrawal rate can be expressed/calculated for a single reason such as adverse events, or for any combination of the discontinuation reasons.
# [2] = test system: ulcers induced by indomethacin and by stress; settings: cited from earlier work
smiles,measurement,setting,value
"CC[C@H](C)CC(F)(F)[C@@]1(O)CC[C@H]2[C@@H](CC(=O)[C@@H]2CCCCCCC(=O)O)O1 [cobiprostone, 7{(2R,4aR,5R,7aR)-2-[(3S)-1,1-difluoro-3-methylpentyl]-2-hydroxy-6-oxooctahydrocyclopenta[b]pyran-5-yl}heptanoic acid]",Retention rates at Week 12 compared to naproxen with placebo,"[1]; Week 12, 18, 36 and 54 mcg/day, dose-dependent increase",statistically significant
same,Drug-related gastrointestinal adverse event rate,[1]; cobiprostone 18 mcg/day,60.0%
same,Median number of days in the treatment period,[1]; cobiprostone 18 mcg/day,60.0 days
same,Related adverse event: diarrhea,[1]; cobiprostone 18 mcg/day,13.3%
same,Related adverse event: gastritis,[1]; cobiprostone 18 mcg/day,13.3%
same,Related adverse event: nausea,[1]; cobiprostone 18 mcg/day,10.0%
same,Related overall adverse event rate,[1]; cobiprostone 18 mcg/day,60.0%
same,Withdrawal rate from the trial due to an adverse event,[1]; cobiprostone 18 mcg/day,13.3%
same,Retention rate at Week 8,[1]; cobiprostone 18 mcg/day,67%
same,Retention rate at Week 12,"[1]; cobiprostone 18 mcg/day, Week 12",47%
same,Drug-related gastrointestinal adverse event rate,[1]; cobiprostone 36 mcg/day,67.7%
same,Median number of days in the treatment period,[1]; cobiprostone 36 mcg/day,82.0 days
same,Related adverse event: diarrhea,[1]; cobiprostone 36 mcg/day,32.3%
same,Related adverse event: gastritis,[1]; cobiprostone 36 mcg/day,6.5%
same,Related adverse event: nausea,[1]; cobiprostone 36 mcg/day,16.1%
same,Related overall adverse event rate,[1]; cobiprostone 36 mcg/day,71.0%
same,Withdrawal rate from the trial due to an adverse event,[1]; cobiprostone 36 mcg/day,16.1%
same,Retention rate at Week 8,[1]; cobiprostone 36 mcg/day,66%
same,Retention rate at Week 12,"[1]; cobiprostone 36 mcg/day, Week 12",52%
same,Drug-related gastrointestinal adverse event rate,[1]; cobiprostone 54 mcg/day,67.7%
same,Median number of days in the treatment period,[1]; cobiprostone 54 mcg/day,83.0 days
same,Related adverse event: diarrhea,[1]; cobiprostone 54 mcg/day,35.5%
same,Related adverse event: gastritis,[1]; cobiprostone 54 mcg/day,9.7%
same,Related adverse event: nausea,[1]; cobiprostone 54 mcg/day,16.1%
same,Related overall adverse event rate,[1]; cobiprostone 54 mcg/day,67.7%
same,Withdrawal rate from the trial due to an adverse event,[1]; cobiprostone 54 mcg/day,16.1%
same,Retention rate at Week 8,[1]; cobiprostone 54 mcg/day,90%
same,Retention rate at Week 12,"[1]; cobiprostone 54 mcg/day, Week 12",77%
same,Tolerability in patients receiving NSAID therapy,"[1]; overall, 18-54 mcg/day with naproxen 500 mg twice a day",well tolerated
same,Formation of ulcers induced by indomethacin,"[2]; animal studies, indomethacin-induced ulcers",protected against formation of ulcers
same,Formation of ulcers induced by stress,"[2]; animal studies, stress-induced ulcers",protected against formation of ulcers
same,Safety in animal studies,[2],acceptable safety
